Laboratory results as given in patent publication US4988703A, “Carbocyclic nucleoside analogs with antiviral activity” (Abbott Laboratories, priority 1989, dated 1991).
In brackets after ≈: the same amount, converted by molar mass. Like-named read-outs stand apart in the source and are kept apart here.

Tests used:
[1] = system: African green monkey kidney (Vero); assay: Drug cytotoxicity in Vero host cells (cytotoxicity controls of the CPE-inhibition assay); settings: Vero, HSV-2 (MS) experiment
Experimental: (§1) The challenge viruses were propagated and assayed in cells that were pregrown as monolayer cultures in plastic tissue culture flasks and 96-well plates, using cell culture media appropriate for the host cell cultures. The following viruses and host cell cultures were employed:
(§2) On the day of use, a weighed sample of each compound to be evaluated was dissolved and diluted in serial 10^0.5 dilutions in the culture medium appropriate for each virus-host cell system.
(§3) Mammalian cells were pregrown as monolayers in wells of COSTAR 96-well tissue culture plates using suitable cell culture media. Stock viruses were pretitered according to the method of Reed and Muench (Amer. J. Hyg. 27:493-497, 1938) and diluted in cell culture medium to yield 32 CCID50 (cell culture infectious dose, 50%) units per 0.1 ml. Antiviral assays were designed to test seven concentrations of each compound, from cytotoxic to noncytotoxic levels, in triplicate against each of the challenge viruses in microtiter plate wells containing suitable cell monolayers. To each of the replicate cell cultures were added 0.1 ml of the test drug solution and 0.1 ml of virus suspension. Cell controls containing medium alone, virus controls containing medium and virus, and drug cytotoxicity controls containing medium and each drug concentration were run simultaneously with the test samples assayed in each experiment. […] The cell monolayers were examined microscopically for virus-induced CPE and for drug cytotoxicity.
(§4) Antiviral activity was determined by calculating the degree of inhibition of virus-induced CPE in drug-treated, virus-infected cell cultures by means of a virus rating (VR). The VR is a standard weighted measurement of antiviral activity taking into account both the degree of CPE inhibition and drug cytotoxicity, and is determined by a modification of the method of Ehrlich et al. (Ann. N.Y. Acad. Sci. 130 : 5-16, 1965) as described below. CPE was graded for each individual culture in each microtiter plate well according to the following scale:
(§5) ^3 MTC=The minimum drug concentration (ug/ml) causing any cytotoxicity.

[2] = as above; settings: african green monkey, vero cells
Experimental: as §1, §2, §3, §4, §5

[3] = system: Herpes simplex type 2 (HSV-2) strain MS
[4] = system: Herpes simplex type 2 (HSV-2) strain MS; assay: microbe, parasite or virus in culture; settings: Human alphaherpesvirus 2, Vero, read-out: ID50: minimum drug concentration that inhibited the CPE by 50%
[5] = system: Herpes simplex type 1 (HSV-1) strain E-377
[6] = system: Herpes simplex type 1 (HSV-1) strain E-377; assay: microbe, parasite or virus in culture; settings: Human alphaherpesvirus 1, Vero, read-out: ID50: minimum drug concentration that inhibited the CPE by 50%
in vitro = settings: dog, mdck
Experimental: as §1, §2
Mammalian cells were pregrown as monolayers in wells of COSTAR 96-well tissue culture plates using suitable cell culture media. Stock viruses were pretitered according to the method of Reed and Muench (Amer. J. Hyg. 27:493-497, 1938) and diluted in cell culture medium to yield 32 CCID50 (cell culture infectious dose, 50%) units per 0.1 ml. Antiviral assays were designed to test seven concentrations of each compound, from cytotoxic to noncytotoxic levels, in triplicate against each of the challenge viruses in microtiter plate wells containing suitable cell monolayers. To each of the replicate cell cultures were added 0.1 ml of the test drug solution and 0.1 ml of virus suspension. […]
Antiviral activity was determined by calculating the degree of inhibition of virus-induced CPE in drug-treated, virus-infected cell cultures by means of a virus rating (VR). […]

[7] = system: Human influenza type A (IV-A) strain PR/8/34 (HINI); assay: CPE-inhibition assay against human influenza virus type A in MDCK cells; assay type: cell-based

SMILES | MTC: minimum drug concentration causing any cytotoxicity [1] [µg/mL] | MCC [2] [µg/mL] | TI (Therapeutic Index): minimum cytotoxic drug concentration divided by ID50 ([3]; HSV-2 MS, Vero) | VR (Virus Rating) ([3]; HSV-2 MS, Vero, VR 1.0 definite activity, 0.5-0.9 marginal to moderate, <0.5 usually none) | IC50 [4] [µg/mL] | TI (Therapeutic Index): minimum cytotoxic drug concentration divided by ID50 ([5]; HSV-1 E-377, Vero) | VR (Virus Rating) ([5]; HSV-1 E-377, Vero, VR 1.0 definite activity, 0.5-0.9 marginal to moderate, <0.5 usually none) | IC50 [6] [µg/mL] | VR (Virus Rating) [3] | MCC (in vitro) [µg/mL] | VR (Virus Rating) [5] | VR (Virus Rating) [7]
Nc1nc2c(ncn2C2CC2CCO)c(=O)[nH]1 (stereo not drawn) [Example 2E, 9-[2-(2'-hydroxyethyl)cyclopropyl]guanine] | > 320 | > 320 | > 4.1 | 2.3 | 77.7 (≈ 330 µM) | > 10.4 | 3.7 | 31.6 (≈ 134 µM) |  |  |  | 
Nc1nc2c(ncn2C2CC2C(O)CO)c(=O)[nH]1 (stereo not drawn) [Example 3G] | > 320 | > 320 | 2.0 |  | 159 (≈ 633 µM) | 3.2 |  | 101 (≈ 402 µM) | 1.3 | > 320 | 1.8 | 0.6
